US4711245A, “Sensor for components of a liquid mixture” (Genetics International, Inc., priority 1983, dated 1987)
Counter-ions that a name gives are not always drawn.

What was measured:
[1] = dc cyclic voltammetry of ferrocene derivatives (redox potential); assay type: physicochemical; conditions: for Eo: vs a standard calomel electrode, phosphate buffer at pH 7.0
[2] = target: T1, glucose oxidase (Aspergillus niger, UniProt P13006); assay: substrate kinetics of glucose oxidase (relative rate, Km); assay type: biochemical; conditions: substrates for glucose oxidase; β-D-glucose 100
[3] = spectrophotometric measurement (E, cm^-1 M^-1); assay type: physicochemical
Description: All optical spectra were recorded with a Pye-Unicam SP8 200 spectrophotometer with the sample and reference solutions in matched quartz micro-cuvettes of path length 1 cm.

[4] = target: T2, glucose enzyme electrode (glucose oxidase) (Aspergillus niger, UniProt P13006); assay: steady-state current response of the 1,1'-dimethylferrocene/glucose oxidase enzyme electrode (interfering substances, KM'); conditions: for interference to the electrodes response to glucose: added at normal blood concentration
T2 construct: purchased Boehringer Mannheim

[5] = target: T1, glucose oxidase; conditions: non-immobilized enzyme; cited from earlier work
[6] = vs NHE; cited from earlier work
[7] = target: T1, glucose oxidase; conditions: cited from earlier work
[8] = target: T1, glucose oxidase; assay type: biochemical; conditions: pH 7

T1 sequence (P13006 23-605): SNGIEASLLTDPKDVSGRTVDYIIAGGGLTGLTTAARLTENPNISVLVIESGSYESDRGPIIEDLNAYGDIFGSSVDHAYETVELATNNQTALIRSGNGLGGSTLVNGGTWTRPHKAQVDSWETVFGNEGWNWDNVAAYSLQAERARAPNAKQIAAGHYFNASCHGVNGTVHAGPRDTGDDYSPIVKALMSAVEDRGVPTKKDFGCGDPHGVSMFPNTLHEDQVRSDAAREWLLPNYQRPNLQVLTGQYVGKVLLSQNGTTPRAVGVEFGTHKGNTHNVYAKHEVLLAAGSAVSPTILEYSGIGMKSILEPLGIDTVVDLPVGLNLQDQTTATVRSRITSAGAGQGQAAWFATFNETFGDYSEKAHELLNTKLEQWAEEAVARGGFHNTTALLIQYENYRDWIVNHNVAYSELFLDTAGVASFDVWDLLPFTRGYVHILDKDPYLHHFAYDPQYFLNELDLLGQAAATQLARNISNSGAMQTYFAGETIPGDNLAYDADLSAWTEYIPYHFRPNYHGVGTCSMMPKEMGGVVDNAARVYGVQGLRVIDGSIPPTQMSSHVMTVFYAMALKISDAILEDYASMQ
T2 sequence (P13006 23-605 limits assumed): as the sequence (P13006 23-605) above

**Q.** Which Eo [1] does the source give for 1,1'-dimethylferrocene [1,1'-dimethyl-] here?
**A.** 100 mV

**Q.** Which results are given for “1,1'-ferrocene dicarboxylic acid [1,1'-dicarboxylic acid]”?
**A.** Eo' ([1]; Example 4, procedure of Example 3, saturated calomel reference): +420 mV; Eo [1]: 385 mV

**Q.** For 6-methyl-D-glucose, which “Relative Rate” value [2] is on record?
**A.** 2

**Q.** Which results are given for `OC[c-]1cccc1.OC[c-]1cccc1.[Fe+2]` [1,1'bis(hydroxymethyl)-]?
**A.** E [3]: 385 cm⁻¹ M⁻¹; Eo [1]: 224 mV

**Q.** With `OC[C@H]1OC(O)C[C@@H](O)[C@@H]1O` (stereo partly drawn) [2-deoxy-D-glucose] as the molecule, how does the “Relative Rate” value [2] read?
**A.** 25

**Q.** With `OC[C@H]1OC(O)[C@@H](O)[C@@H](O)[C@@H]1O` (stereo partly drawn) [D-mannose] as the molecule, how does the “Relative Rate” value [2] read?
**A.** 1

**Q.** Which “interference to the electrodes response to glucose” value (from here on “interference”) ([4]; 8 mM glucose) does the source give for `OC1OC[C@@H](O)[C@H](O)[C@H]1O` (stereo partly drawn) [D-xylose] here?
**A.** did not cause any observable interference

**Q.** Which results are given for `OC[C@H]1OC(O)[C@H](O)[C@@H](O)[C@@H]1O` (some centres unmarked) [Glucose]?
**A.** Km ([4]; glucose oxidase immobilized on the prototype ferrocene-based electrodes, kinetically-controlled, read-out: apparent Michaelis-Menten constant KM'): 30 to 40 mM; Km [5]: 3 mM

**Q.** For `O=C1O[C@H]([C@@H](O)CO)C(O)=C1O` [L-ascorbate], which “mean increase in current” value ([4]; 8 mM glucose, final concentration of 0.13 mM) is on record?
**A.** ca. 4.0%

**Q.** With `Cl.N[C@@H](CS)C(=O)O` [L-cysteine HCl] as the molecule, how does the “interference” value ([4]; 8 mM glucose) read?
**A.** did not cause any observable interference

**Q.** Which Eo [1] does the source give for `Cl[c-]1cccc1.[Fe+2].c1cc[cH-]c1` [chloro-] here?
**A.** 345 mV

**Q.** What does the source list for `[Fe+2].c1cc[cH-]c1.c1cc[cH-]c1` [ferrocene]?
**A.** E [3]: 335 cm⁻¹ M⁻¹; Eo [1]: 165 mV; redox potential [6]: +422 mV

**Q.** Which “ks, rate of reaction of the natural electron acceptor with glucose oxidase” value [7] does the source give for `O=O` [molecular oxygen] here?
**A.** 10^6 M^-1 S^-1

**Q.** For `N[C@@H](CCC(=O)N[C@@H](CS)C(=O)NCC(=O)O)C(=O)O` [reduced glutathione], which “interference” value ([4]; 8 mM glucose) is on record?
**A.** did not cause any observable interference

**Q.** For `O=CO` [sodium formate], which “interference” value ([4]; 8 mM glucose) is on record?
**A.** did not cause any observable interference

**Q.** Which “Relative Rate” value [2] does the source give for `OC[C@H]1O[C@H](O)[C@H](O)[C@@H](O)[C@@H]1O` [α-D-glucose] here?
**A.** 0.6

**Q.** Which “interference” value ([4]; 8 mM glucose) does the source give for `OC[C@H]1O[C@H](O)[C@H](O)[C@@H](O)[C@H]1O` [α-galactose] here?
**A.** did not cause any observable interference

**Q.** For `OC[C@H]1O[C@H](O)[C@@H](O)[C@@H](O)[C@@H]1O` [α-mannose], which “interference” value ([4]; 8 mM glucose) is on record?
**A.** did not cause any observable interference

**Q.** For `OC[C@H]1O[C@@H](O)[C@H](O)[C@@H](O)[C@@H]1O` [β-D-glucose], which “Relative Rate” value [2] is on record?
**A.** 100

**Q.** For vinyl ferrocene [vinyl-], which “Eo/mV vs SCE” value ([1]; pH 7) is on record?
**A.** 250 mV

**Q.** What about the “Rates of glucose oxidase oxidation” value [8] of the same molecule?
**A.** 18
